Some test systems named below: RXF 393; A498; SF-295; EKVX; OVCAR-5; SR; COLO 205; HCC 2998; TK-10; NCI-H460; SF-539; NCI-H23; RPMI-8226; SNB-75; A549; K562; SK-MEL-28; HT-29; OVCAR-3; HOP-92.
Common to all, as to test: NCI-60 cell line screen, 48 h

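Each compound was tested at five concentrations against cells in 96-well plates for 48 hours. Abbreviation: GI50, concentration required for 50% inhibition of growth.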 Calls of active or inactive are those of the source. Cut-off read from the data, not from the text of the source: active = GI50 up to about 1.1 µM and inactive = higher.

Turning to `CNC1C(O)CC(OC2C/C=C(\C)C/C(C)=C/C=C/CCC(C)CNC(=O)/C=C/C=C/C2C)OC1C` (stereo not given), the GI50 with RXF 393 is 1.08 µM (active); with A498, 1.72 µM (inactive); in the assay with SF-295, 0.25 µM (active); in the assay with EKVX, 1.6 µM (inactive); in the assay with OVCAR-5, 1.18 µM (inactive); in the assay on SR, 0.24 µM (active). The GI50 is 0.202 µM (active) in the assay on COLO 205; 0.286 µM (active) in the assay on HCC 2998; 1.1 µM (active) in the assay on TK-10; 0.173 µM (active) in the assay with NCI-H460; 0.918 µM (active) with SF-539; 0.863 µM (active) in the assay with NCI-H23. The GI50 with RPMI-8226 was 0.22 µM (active); in the assay on SNB-75 it was 0.711 µM (active); in the assay on A549, 0.504 µM (active); in the assay with K562, 0.0995 µM (active); in the assay on SK-MEL-28 it was 0.667 µM (active); in the assay with HT-29, 0.224 µM (active). The GI50 in the assay with OVCAR-3 is 0.986 µM (active); in the assay on HOP-92 it was 0.451 µM (active).
Consider `COc1cc(OCc2ccc3nc(OC)c(OC)nc3c2)cc(OC)c1OC`, for which the GI50 with RXF 393, in the assay on A498, in the assay on SF-295, in the assay with EKVX, in the assay on OVCAR-5 and with SR was > 10 µM (inactive) each time. Further, the GI50 in the assay on COLO 205, in the assay with HCC 2998, in the assay with TK-10, with NCI-H460, in the assay with SF-539 and with NCI-H23 was > 10 µM (inactive) throughout. Besides, the GI50 in the assay on RPMI-8226, in the assay on SNB-75, in the assay with A549, in the assay with K562, in the assay on SK-MEL-28 and with HT-29 was > 10 µM (inactive) in each case. The GI50 is > 10 µM (inactive) with OVCAR-3 and 7.18 µM (inactive) in the assay with HOP-92.
In the case of `CC/C(=N\NS(=O)(=O)c1ccccc1)c1ccccc1`, the GI50 with RXF 393, in the assay with A498, with SF-295, in the assay with EKVX, with OVCAR-5 and in the assay with SR was > 100 µM (inactive) in each case. The GI50 in the assay with COLO 205, with HCC 2998, in the assay on TK-10, in the assay with NCI-H460, in the assay with SF-539 and with NCI-H23 was > 100 µM (inactive) throughout. Moreover, the GI50 in the assay with RPMI-8226, in the assay with SNB-75, with A549, in the assay on K562, in the assay with SK-MEL-28 and in the assay on HT-29 was > 100 µM (inactive) throughout. The GI50 with OVCAR-3 and in the assay on HOP-92 was > 100 µM (inactive) throughout.
As for `Cc1cccc2nc3cccc(C(=O)NCCC[N+](C)(CCCNC(=O)c4cccc5nc6cccc(C)c6nc45)Cc4c([N+](=O)[O-])ncn4C)c3nc12`, the GI50 is 4.01 µM (inactive) in the assay with RXF 393; 0.979 µM (active) with A498; 1.35 µM (inactive) with SF-295; 1.79 µM (inactive) with EKVX; 1.91 µM (inactive) with OVCAR-5; 12.6 µM (inactive) in the assay with SR. The GI50 in the assay with COLO 205 was 0.705 µM (active); with HCC 2998, 1.67 µM (inactive); in the assay with TK-10 it was 43.9 µM (inactive); in the assay on NCI-H460, 0.0632 µM (active); with SF-539, 0.41 µM (active); in the assay on NCI-H23 it was 1.53 µM (inactive). Further, the GI50 with RPMI-8226 was 0.0436 µM (active); in the assay on SNB-75, 233 µM (inactive); with A549, 0.189 µM (active); in the assay with K562, 25.4 µM (inactive); in the assay with SK-MEL-28, 1.07 µM (active); in the assay with HT-29, 0.187 µM (active). The figures for the GI50 in the assay with OVCAR-3 and with HOP-92 were 22 µM (inactive) and 23.9 µM (inactive), respectively.
Consider `CCN(CC)C(=S)/N=C(\SC(=S)N(CC)CC)c1ccccc1`, for which the GI50 in the assay with RXF 393 was > 49.3 µM (inactive); with A498 it was > 95.3 µM (inactive); in the assay on SF-295 it was 42.6 µM (inactive); in the assay on EKVX, 38.5 µM (inactive); in the assay with OVCAR-5, > 80 µM (inactive); with SR it was 0.391 µM (active). Further, the GI50 in the assay with COLO 205 is 0.522 µM (active); with HCC 2998, 57.1 µM (inactive); in the assay with TK-10, > 89.5 µM (inactive); in the assay with NCI-H460 it was 6.1 µM (inactive); with SF-539, 51.4 µM (inactive); in the assay with NCI-H23, 36.9 µM (inactive). The GI50 in the assay with RPMI-8226 was 2.48 µM (inactive); in the assay with SNB-75, 24.1 µM (inactive); with A549, 20.8 µM (inactive); in the assay on K562 it was 1.29 µM (inactive); with SK-MEL-28, 57 µM (inactive); in the assay on HT-29, 0.392 µM (active). Also, the GI50 is 28.2 µM (inactive) in the assay on OVCAR-3 and > 100 µM (inactive) with HOP-92.

For the origin of these results see ChEMBL document CHEMBL1201862, “PubChem BioAssay data set” (2004).
